In brackets after ≈: the same amount, converted by molar mass.
Experiments:
[1] = test system: Gram-positive and Gram-negative bacteria as well as yeasts and filamentous fungi; assay: Antibacterial and antifungal activity (summary statement); type: cell-based
Excerpt: (§1) The minimum inhibitory concentrations of the new antibiotic aranorosin required to inhibit various strains of bacteria and fungi are listed in Table I.

[2] = test system: malignant tumors and leukemias; assay: Cytostatic activity (statement); type: cell-based; conditions: general statement, no data given
[3] = Solubility; type: physicochemical
[4] = test system: Saccaromyces cerevisiae; assay: MIC against bacteria and fungi (Table I); type: cell-based; conditions: read-out: Minimum inhibitory concentration (MIC)
Excerpt: as §1

[5] = test system: Staphylococcus aureus 20204; assay: MIC against bacteria and fungi (Table I); type: cell-based; conditions: read-out: Minimum inhibitory concentration (MIC)
Excerpt: as §1

[6] = test system: Staphylococcus aureus 285; assay: MIC against bacteria and fungi (Table I); type: cell-based; conditions: read-out: Minimum inhibitory concentration (MIC)
Excerpt: as §1

[7] = test system: Streptococcus faecalis; assay: MIC against bacteria and fungi (Table I); type: cell-based; conditions: Enterococcus faecalis, read-out: Minimum inhibitory concentration (MIC)
Excerpt: as §1

[8] = test system: Candida albicans; assay: MIC against bacteria and fungi (Table I); type: cell-based; conditions: read-out: Minimum inhibitory concentration (MIC)
Excerpt: as §1

[9] = test system: Enterobacter cloacae 1321 E; assay: MIC against bacteria and fungi (Table I); type: cell-based; conditions: read-out: Minimum inhibitory concentration (MIC)
Excerpt: as §1

[10] = test system: Klebsiella aerogenes 1522 E; assay: MIC against bacteria and fungi (Table I); type: cell-based; conditions: read-out: Minimum inhibitory concentration (MIC)
Excerpt: as §1

[11] = test system: Penicillium italicum; assay: MIC against bacteria and fungi (Table I); type: cell-based; conditions: read-out: Minimum inhibitory concentration (MIC)
Excerpt: as §1

[12] = test system: E. coli DC 2; assay: MIC against bacteria and fungi (Table I); type: cell-based; conditions: Escherichia coli, DC2, read-out: Minimum inhibitory concentration (MIC)
Excerpt: as §1

[13] = test system: E. coli TEM; assay: MIC against bacteria and fungi (Table I); type: cell-based; conditions: Escherichia coli, read-out: Minimum inhibitory concentration (MIC)
Excerpt: as §1

[14] = test system: Staphylococcus aureus R 85; assay: MIC against bacteria and fungi (Table I); type: cell-based; conditions: R85, read-out: Minimum inhibitory concentration (MIC)
Excerpt: as §1

[15] = test system: Botrytis cinerea; assay: MIC against bacteria and fungi (Table I); type: cell-based; conditions: read-out: Minimum inhibitory concentration (MIC)
Excerpt: as §1

[16] = test system: Pseudomonas aeruginosa 1592 E; assay: MIC against bacteria and fungi (Table I); type: cell-based; conditions: read-out: Minimum inhibitory concentration (MIC)
Excerpt: as §1

[17] = test system: Enterobacter cloacae P 99; assay: MIC against bacteria and fungi (Table I); type: cell-based; conditions: P99, read-out: Minimum inhibitory concentration (MIC)
Excerpt: as §1

[18] = test system: Streptococcus pyogenes 77 A; assay: MIC against bacteria and fungi (Table I); type: cell-based; conditions: read-out: Minimum inhibitory concentration (MIC)
Excerpt: as §1

[19] = test system: Staphylococcus aureus 209 P; assay: MIC against bacteria and fungi (Table I); type: cell-based; conditions: read-out: Minimum inhibitory concentration (MIC)
Excerpt: as §1

[20] = test system: Streptococcus pyogenes 308A; assay: MIC against bacteria and fungi (Table I); type: cell-based; conditions: read-out: Minimum inhibitory concentration (MIC)
Excerpt: as §1

[21] = test system: Salmonella typhimurium; assay: MIC against bacteria and fungi (Table I); type: cell-based; conditions: Salmonella enterica, read-out: Minimum inhibitory concentration (MIC)
Excerpt: as §1

[22] = test system: E. coli 1507 E; assay: MIC against bacteria and fungi (Table I); type: cell-based; conditions: Escherichia coli, read-out: Minimum inhibitory concentration (MIC)
Excerpt: as §1

[23] = test system: Pseudomonas aeruginosa 1771; assay: MIC against bacteria and fungi (Table I); type: cell-based; conditions: read-out: Minimum inhibitory concentration (MIC)
Excerpt: as §1

[24] = test system: Pseudomonas aeruginosa 1771 M; assay: MIC against bacteria and fungi (Table I); type: cell-based; conditions: read-out: Minimum inhibitory concentration (MIC)
Excerpt: as §1

[25] = test system: Bacillus subtilis; assay: MIC against bacteria and fungi (Table I); type: cell-based; conditions: read-out: Minimum inhibitory concentration (MIC)
Excerpt: as §1

[26] = test system: Pseudomonas aeruginosa ATCC 9027; assay: MIC against bacteria and fungi (Table I); type: cell-based; conditions: ATCC9027, read-out: Minimum inhibitory concentration (MIC)
Excerpt: as §1

[27] = test system: Sarcina lutea; assay: MIC against bacteria and fungi (Table I); type: cell-based; conditions: Micrococcus luteus, read-out: Minimum inhibitory concentration (MIC)
Excerpt: as §1

[28] = test system: Cercospora beticola; assay: MIC against bacteria and fungi (Table I); type: cell-based; conditions: read-out: Minimum inhibitory concentration (MIC)
Excerpt: as §1

[29] = test system: Klebsiella aerogenes 1082 E; assay: MIC against bacteria and fungi (Table I); type: cell-based; conditions: read-out: Minimum inhibitory concentration (MIC)
Excerpt: as §1

[30] = test system: E. coli 055; assay: MIC against bacteria and fungi (Table I); type: cell-based; conditions: Escherichia coli, read-out: Minimum inhibitory concentration (MIC)
Excerpt: as §1

[31] = test system: Staphylococcus aureus 503; assay: MIC against bacteria and fungi (Table I); type: cell-based; conditions: read-out: Minimum inhibitory concentration (MIC)
Excerpt: as §1

[32] = test system: Staphylococcus aureus SG 511; assay: MIC against bacteria and fungi (Table I); type: cell-based; conditions: SG511, read-out: Minimum inhibitory concentration (MIC)
Excerpt: as §1

[33] = test system: Aspergillus niger; assay: MIC against bacteria and fungi (Table I); type: cell-based; conditions: read-out: Minimum inhibitory concentration (MIC)
Excerpt: as §1

[34] = test system: E. coli Ese 2231; assay: MIC against bacteria and fungi (Table I); type: cell-based; conditions: Escherichia coli, ESE2231, read-out: Minimum inhibitory concentration (MIC)
Excerpt: as §1

[35] = test system: E. coli DC O; assay: MIC against bacteria and fungi (Table I); type: cell-based; conditions: Escherichia coli, read-out: Minimum inhibitory concentration (MIC)
Excerpt: as §1

[36] = test system: Microspora gypseum; assay: MIC against bacteria and fungi (Table I); type: cell-based; conditions: read-out: Minimum inhibitory concentration (MIC)
Excerpt: as §1

**Q.** For `CCCCCCC(C)/C=C(C)/C=C/C(=O)NC1CC2(OC1O)C1OC1C(=O)C1OC12` (stereo not shown) [aranorosin], which “effectiveness against bacteria, yeasts and filamentous fungi” value ([1]; conclusion from Table I) is on record?
**A.** Its value is “effective against Gram-positive and Gram-negative bacteria as well as yeasts and filamentous fungi”.

**Q.** What about the “bactericidal and fungicidal properties” value ([1]; general statement) of the same compound?
**A.** Its value is “has bactericidal and fungicidal properties”.

**Q.** And the cytostatic properties [2]?
**A.** The cytostatic properties was “has cytostatic properties”.

**Q.** And the Solubility ([3]; in benzene)?
**A.** The Solubility was “sparingly soluble”.

**Q.** And the Solubility ([3]; in diethyl ether, chloroform, acetone, ethyl acetate, dimethyl sulfoxide and methanol)?
**A.** Its Solubility is “soluble”.

**Q.** What about the Solubility ([3]; in petroleum ether) of the same compound?
**A.** The Solubility was “Insoluble”.

**Q.** What about the Solubility ([3]; in water) of the same compound?
**A.** Its Solubility is “Insoluble”.

**Q.** What about the MIC [4] of the same compound?
**A.** Its MIC is 500 mg/L (≈ 1190 µM).

**Q.** What about the MIC [5] of the same compound?
**A.** Its MIC is 1.5 mg/L (≈ 3.58 µM).

**Q.** And the MIC [6]?
**A.** The MIC was 0.78 mg/L (≈ 1.86 µM).

**Q.** What about the MIC [7] of the same compound?
**A.** The MIC was 3 mg/L (≈ 7.15 µM).

**Q.** What about the MIC [8] of the same compound?
**A.** Its MIC is 30 mg/L (≈ 71.5 µM).

**Q.** What about the MIC [9] of the same compound?
**A.** The MIC was 100 mg/L (≈ 238 µM).

**Q.** And the MIC [10]?
**A.** The MIC was 100 mg/L (≈ 238 µM).

**Q.** What about the MIC [11] of the same compound?
**A.** The MIC was 30 mg/L (≈ 71.5 µM).

**Q.** What about the MIC [12] of the same compound?
**A.** Its MIC is 25 mg/L (≈ 59.6 µM).

**Q.** And the MIC [13]?
**A.** The MIC was 100 mg/L (≈ 238 µM).

**Q.** And the MIC [14]?
**A.** Its MIC is 1.5 mg/L (≈ 3.58 µM).

**Q.** And the MIC [15]?
**A.** Its MIC is 30 mg/L (≈ 71.5 µM).

**Q.** What about the MIC [16] of the same compound?
**A.** The MIC was over 100 mg/L.

**Q.** What about the MIC [17] of the same compound?
**A.** Its MIC is 100 mg/L (≈ 238 µM).

**Q.** What about the MIC [18] of the same compound?
**A.** Its MIC is 0.78 mg/L (≈ 1.86 µM).

**Q.** And the MIC [19]?
**A.** Its MIC is 1.5 mg/L (≈ 3.58 µM).

**Q.** What about the MIC [20] of the same compound?
**A.** Its MIC is 0.78 mg/L (≈ 1.86 µM).

**Q.** And the MIC [21]?
**A.** Its MIC is 50 mg/L (≈ 119 µM).

**Q.** And the MIC [22]?
**A.** The MIC was 100 mg/L (≈ 238 µM).

**Q.** What about the MIC [23] of the same compound?
**A.** The MIC was over 100 mg/L.

**Q.** What about the MIC [24] of the same compound?
**A.** Its MIC is 50 mg/L (≈ 119 µM).

**Q.** What about the MIC [25] of the same compound?
**A.** Its MIC is 1.5 mg/L (≈ 3.58 µM).

**Q.** And the MIC [26]?
**A.** Its MIC is over 100 mg/L.

**Q.** And the MIC [27]?
**A.** Its MIC is 1.5 mg/L (≈ 3.58 µM).

**Q.** What about the MIC [28] of the same compound?
**A.** The MIC was 3 mg/L (≈ 7.15 µM).

**Q.** And the MIC [29]?
**A.** Its MIC is 50 mg/L (≈ 119 µM).

**Q.** And the MIC [30]?
**A.** The MIC was 100 mg/L (≈ 238 µM).

**Q.** What about the MIC [31] of the same compound?
**A.** Its MIC is 0.78 mg/L (≈ 1.86 µM).

**Q.** What about the MIC [32] of the same compound?
**A.** Its MIC is 0.78 mg/L (≈ 1.86 µM).

**Q.** What about the MIC [33] of the same compound?
**A.** Its MIC is 7.5 mg/L (≈ 17.9 µM).

**Q.** And the MIC [34]?
**A.** The MIC was over 200 mg/L.

**Q.** What about the MIC [35] of the same compound?
**A.** Its MIC is 100 mg/L (≈ 238 µM).

**Q.** And the MIC [36]?
**A.** Its MIC is 3 mg/L (≈ 7.15 µM).

Source: patent US5112858A, “Antibiotic, aranorosin, a microbiological process for the preparation thereof, and the use thereof as a pharmaceutical” (Hoechst Aktiengesellschaft, priority 1988, dated 1992)
